Laboratory results as given in US8426408B2, “Pyrimidine inhibitors of kinases” (AbbVie Inc., priority 2009, dated 2013).

Tests used:
Aurora A = molecular target: T1, Aurora A (Homo sapiens, UniProt O14965); assay: Aurora A enzyme inhibition (time-resolved fluorescence, STK substrate-2); assay type: biochemical; conditions: 1 mM ATP
T1 sequence (O14965 1-403): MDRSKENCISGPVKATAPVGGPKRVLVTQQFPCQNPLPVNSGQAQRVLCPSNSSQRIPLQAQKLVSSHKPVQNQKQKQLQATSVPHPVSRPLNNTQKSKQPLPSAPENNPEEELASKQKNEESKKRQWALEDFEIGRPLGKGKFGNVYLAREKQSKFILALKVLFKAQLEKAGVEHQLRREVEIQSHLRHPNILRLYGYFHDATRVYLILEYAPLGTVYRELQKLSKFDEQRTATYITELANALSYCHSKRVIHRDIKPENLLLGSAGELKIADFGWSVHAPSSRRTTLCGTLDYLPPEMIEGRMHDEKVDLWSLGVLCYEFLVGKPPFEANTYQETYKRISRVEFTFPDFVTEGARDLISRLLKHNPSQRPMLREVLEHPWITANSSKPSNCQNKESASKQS
Method in brief: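 Phosphorylation of biotinylated STK substrate-2 at 1 mM ATP, 1 h, Hepes buffer pH 7.4 (MgCl2, sodium orthovanadate, Triton X-100). After EDTA quench, 665/615 nm time-resolved fluorescence ratio read via europium anti-phospho antibody and SA-XL665; IC50 from exponential fit versus inhibitor concentration.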

NCI-H1299 cells = assay: Induction of polyploidy in H1299; assay type: cell-based, Human; conditions: NCI-H1299, 48 hours
Method in brief: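 Potency is given as EC15, the inhibitor concentration giving 15% polyploid cells, from log dose-response least-squares analysis. Polyploid cells (nuclear area >750 μ^2, ≥4N) were counted by Hoechst high-content microscopy. H1299 cells had been exposed for 48 h at 37 C in duplicate, then fixed in 3% formalin.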

Ki (Aurora A): < 100 nM
Substance: (1S,2R)-2-{[5-chloro-2-({1-[2-(morpholin-4-yl)ethyl]-1H-pyrazol-4-yl}amino)pyrimidin-4-yl]amino}cyclopentanecarboxamide and (1R,2S)-2-{[5-chloro-2-({1-[2-(morpholin-4-yl)ethyl]-1H-pyrazol-4-yl}amino)pyrimidin-4-yl]amino}cyclopentanecarboxamide [Example 137]
EC15 (concentration of inhibitor necessary to induce polyploidy in 15% of cells) (NCI-H1299 cells): B (“B” represents an EC15 of between 0.1 μM and 1 μM)
